The results in this text go back to ChEMBL document CHEMBL5543080, “5+1-Heterocyclization as preparative approach for carboxy-containing triazolo[1,5-c]quinazolines with anti-inflammatory activity” (2024).

What all share (type): functional
Experiment [1] has as its system Rattus norvegicus. In words: Antiinflammatory activity in Wistar rat model of acute aseptic inflammation assessed as inhibition of carrageenan-induced exudative inflammation at 25 mg/kg, IG preadministered with compound for 1 hrs followed by carrageenan administration and measured after 3 hrs by water displacement plethysmometer relative to control. As to conditions: po, time 4 hrs.

Experiment [2] deals with Rattus norvegicus. In words: Antiinflammatory activity in carrageenan induced Wistar rat model of acute aseptic inflammation assessed as healthy paw volume at 25 mg/kg, IG preadministered with compound for 1 hrs followed by carrageenan administration and measured after 3 hrs by water displacement plethysmometer (reference value: 1.38 +/- 0.06 ml). The settings on record: time 4 hrs.

The subject of experiment [3] is Rattus norvegicus. The experiment is described as follows: Antiinflammatory activity in carrageenan induced Wistar rat model of acute aseptic inflammation assessed as edema paw volume at 25 mg/kg, IG preadministered with compound for 1 hrs followed by carrageenan administration and measured after 3 hrs by water displacement plethysmometer (reference value: 2.23 +/- 0.13 ml). The settings on record: time 4 hrs.

For experiment [4], the system named is Rattus norvegicus. The experiment is described as follows: Antiinflammatory activity in carrageenan induced Wistar rat model of acute aseptic inflammation assessed as healthy paw volume at 25 mg/kg, IG preadministered with compound for 1 hrs followed by carrageenan administration and measured after 3 hrs by water displacement plethysmometer (reference value: 1.20 +/- 0.06 ml). The settings on record: time 4 hrs.

Experiment [5] concerns Rattus norvegicus. In words: Antiinflammatory activity in carrageenan induced Wistar rat model of acute aseptic inflammation assessed as edema paw volume at 25 mg/kg, IG preadministered with compound for 1 hrs followed by carrageenan administration and measured after 3 hrs by water displacement plethysmometer (reference value: 2.48 +/- 0.09 ml). The settings on record: time 4 hrs.

In experiment [6] the test system is Rattus norvegicus. The experiment is described as follows: Antiinflammatory activity in Wistar rat model of acute aseptic inflammation assessed as reduction in paw edema by measuring nitrotyrosine level at 25 mg/kg, IG preadministered with compound for 1 hrs followed by carrageenan administration and measured after 3 hrs by ELISA (reference value: 16.45 +/- 3.748 nM/ml). The settings on record: time 4 hrs.

Experiment [7] has as its system Rattus norvegicus. The experiment is described as follows: Antiinflammatory activity in Wistar rat model of acute aseptic inflammation assessed as reduction in paw edema by measuring IL-1beta level at 25 mg/kg, IG preadministered with compound for 1 hrs followed by carrageenan administration and measured after 3 hrs by ELISA (reference value: 3.250 +/- 0.778 pg/ml). The settings on record: time 4 hrs.

The subject of experiment [8] is Rattus norvegicus. In words: Antiinflammatory activity in Wistar rat model of acute aseptic inflammation assessed as reduction in paw edema by measuring neutrophils level at 25 mg/kg, IG preadministered with compound for 1 hrs followed by carrageenan administration and measured after 3 hrs (reference value: 4.100 +/- 0.424 10^3/ml). As to conditions: time 4 hrs.
Experiment [9] has as its system Rattus norvegicus. The experiment is described as follows: Antiinflammatory activity in Wistar rat model of acute aseptic inflammation assessed as reduction in paw edema by measuring COX-2 level at 25 mg/kg, IG preadministered with compound for 1 hrs followed by carrageenan administration and measured after 3 hrs by ELISA (reference value: 15.00 +/- 4.243 ng/ml). The settings on record: time 4 hrs.

Experiment [10] concerns Rattus norvegicus. In words: Antiinflammatory activity in Wistar rat model of acute aseptic inflammation assessed as reduction in paw edema by measuring eNOS level at 25 mg/kg, IG preadministered with compound for 1 hrs followed by carrageenan administration and measured after 3 hrs by ELISA (reference value: 8.150 +/- 6.576 pg/ml). The settings on record: time 4 hrs.
Experiment [11] deals with Rattus norvegicus. The experiment is described as follows: Antiinflammatory activity in Wistar rat model of acute aseptic inflammation assessed as reduction in paw edema by measuring C-reactive protein level at 25 mg/kg, IG preadministered with compound for 1 hrs followed by carrageenan administration and measured after 3 hrs by ELISA (reference value: 10.64 +/- 1.223 ng/ml). As to conditions: time 4 hrs.

Experiment [12] has as its system Rattus norvegicus. In words: Antiinflammatory activity in Wistar rat model of acute aseptic inflammation assessed as decrease in nitrotyrosine level at 25 mg/kg, IG preadministered with compound for 1 hrs followed by carrageenan administration and measured after 3 hrs by ELISA relative to control. On the set-up: scale not given: the % may be the effect or the level left. The settings on record: time 4 hrs.

Experiment [13] deals with Rattus norvegicus. The experiment is described as follows: Antiinflammatory activity in Wistar rat model of acute aseptic inflammation assessed as increase in eNOS level at 25 mg/kg, IG preadministered with compound for 1 hrs followed by carrageenan administration and measured after 3 hrs by ELISA relative to control. The settings on record: time 4 hrs.

Turning to `CCOC(=O)c1ccc(-c2nc3n(n2)C2(C(=O)O)CCC(=O)N2c2ccccc2-3)cc1` (stereo not drawn), in the experiment on Rattus norvegicus [1], the inhibition in vivo at 25 mg/kg stood at 5.75%. In addition, the Activity in the experiment on Rattus norvegicus [2] was determined as 1.43 mL; in the experiment with Rattus norvegicus [3] it was 2.23 mL.

In the case of `O=C1CCC2(C(=O)O)N1c1ccccc1-c1nc(-c3ccccc3)nn12` (stereo not drawn), the inhibition in vivo at 25 mg/kg in the experiment with Rattus norvegicus [1] worked out at 6.22%. Also, the Activity is 1.39 mL with Rattus norvegicus [2] and 2.19 mL in the experiment on Rattus norvegicus [3].

With `O=C(O)c1ccc(C2Nc3ccccc3-c3nc(-c4ccccc4)nn32)cc1` (stereo not drawn), the results for the Activity with Rattus norvegicus [4] and in the experiment with Rattus norvegicus [5] were 1.28 mL and 2.35 mL, respectively. In addition, the inhibition in vivo at 25 mg/kg in the experiment with Rattus norvegicus [1] is 16.1%.

Regarding `CCOC(=O)c1ccc(-c2nc3n(n2)C(c2ccc(C(=O)O)c(O)c2)Nc2ccccc2-3)cc1` (stereo not drawn), the Activity with Rattus norvegicus [4] came to 1.39 mL; in the experiment on Rattus norvegicus [5] it was 2.38 mL. The inhibition in vivo at 25 mg/kg in the experiment with Rattus norvegicus [1] turned out to be 18.3%.

In the case of `CCOC(=O)c1ccc(-c2nc3n(n2)C(c2ccc(C(=O)O)cc2)Nc2ccccc2-3)cc1` (stereo not drawn), the Activity in the experiment with Rattus norvegicus [6] was 11.37 nM/ml; in the experiment on Rattus norvegicus [7], 0.87 pg/mL; in the experiment with Rattus norvegicus [8], 2.533 10^3/ml; in the experiment on Rattus norvegicus [9] it was 4.367 ng/mL; in the experiment with Rattus norvegicus [4], 1.38 mL; in the experiment with Rattus norvegicus [5] it was 2.37 mL. The values for the Activity with Rattus norvegicus [10] and with Rattus norvegicus [11] were 14.43 pg/mL and 5.8 ng/mL, respectively. Moreover, the inhibition in vivo at 25 mg/kg in the experiment with Rattus norvegicus [1] came out at 21.9%.

For `CCOC(=O)CC1(C)Nc2ccccc2-c2nc(-c3ccc(OC)cc3)nn21` (stereo not drawn), the inhibition in vivo at 25 mg/kg in the experiment on Rattus norvegicus [1] amounted to 7.27%. The Activity in the experiment with Rattus norvegicus [2] worked out at 1.33 mL; in the experiment on Rattus norvegicus [3], 2.12 mL.

For `CCOC(=O)c1nc2n(n1)C1(CCC(=O)O)CCC(=O)N1c1ccccc1-2` (stereo not drawn), the inhibition in vivo at 25 mg/kg in the experiment with Rattus norvegicus [1] was determined as 12.2%. Moreover, the results for the Activity with Rattus norvegicus [2] and in the experiment with Rattus norvegicus [3] were 1.28 mL and 2.03 mL, respectively.

In the case of `O=C(O)C1Nc2ccccc2-c2nc(-c3ccccc3)nn21` (stereo not drawn), the inhibition in vivo at 25 mg/kg in the experiment on Rattus norvegicus [1] amounted to 12.2%. The Activity was found to be 1.28 mL in the experiment on Rattus norvegicus [2] and 2.03 mL with Rattus norvegicus [3].

Turning to `CCOC(=O)c1nc2n(n1)C(c1ccc(C(=O)O)cc1)Nc1ccccc1-2` (stereo not drawn), the Activity was 5.367 nM/ml with Rattus norvegicus [6]; 0.253 pg/mL in the experiment on Rattus norvegicus [7]; 1.667 10^3/ml in the experiment on Rattus norvegicus [8]; 3.033 ng/mL in the experiment on Rattus norvegicus [9]; 1.45 mL in the experiment on Rattus norvegicus [4]; 2.05 mL with Rattus norvegicus [5]. For the same compound, the Activity in the experiment on Rattus norvegicus [10] came out at 39.9 pg/mL; in the experiment on Rattus norvegicus [11] it was 2.48 ng/mL. Moreover, the inhibition in vivo at 25 mg/kg in the experiment with Rattus norvegicus [1] worked out at 52.7%.

Take `O=C(O)CCC12CCC(=O)N1c1ccccc1-c1nc(-c3ccccc3)nn12` (stereo not drawn): the inhibition in vivo at 25 mg/kg in the experiment on Rattus norvegicus [1] came out at 0.94%. Besides, the Activity was found to be 1.41 mL in the experiment with Rattus norvegicus [2] and 2.25 mL in the experiment with Rattus norvegicus [3].

Regarding `CCOC(=O)C1(C)Nc2ccccc2-c2nc(-c3ccccc3)nn21` (stereo not drawn), in the experiment on Rattus norvegicus [1], the inhibition in vivo at 25 mg/kg was 24.3%. The Activity is 1.39 mL in the experiment with Rattus norvegicus [2] and 2.03 mL in the experiment on Rattus norvegicus [3].

On to `O=C1c2ccccc2C2N1c1ccccc1-c1nc(-c3ccccc3)nn12` (stereo not drawn), for which the inhibition in vivo at 25 mg/kg in the experiment on Rattus norvegicus [1] was determined as 12.5%. The Activity in the experiment with Rattus norvegicus [2] was 1.25 mL; in the experiment on Rattus norvegicus [3], 1.99 mL.

On to `CCOC(=O)c1ccc(-c2nc3n(n2)C(c2cccc(C(=O)O)c2)Nc2ccccc2-3)cc1` (stereo not drawn), for which the Activity with Rattus norvegicus [6] was 6.433 nM/ml; in the experiment with Rattus norvegicus [7], 0.613 pg/mL; in the experiment on Rattus norvegicus [8], 2.4 10^3/ml; with Rattus norvegicus [9], 3.8 ng/mL; in the experiment on Rattus norvegicus [4] it was 1.36 mL; with Rattus norvegicus [5] it was 2.24 mL. In addition, the Activity with Rattus norvegicus [10] is 28.03 pg/mL; with Rattus norvegicus [11], 4.233 ng/mL. For the same compound, the inhibition in vivo at 25 mg/kg in the experiment on Rattus norvegicus [1] stood at 31%.

For the compound `O=C(O)c1cc(C2Nc3ccccc3-c3nc(-c4ccccc4)nn32)ccc1O` (stereo not drawn), the Activity in the experiment with Rattus norvegicus [6] is 10.67 nM/ml; in the experiment on Rattus norvegicus [7], 0.427 pg/mL; in the experiment with Rattus norvegicus [8], 2.433 10^3/ml; in the experiment with Rattus norvegicus [9], 11.27 ng/mL; in the experiment on Rattus norvegicus [4], 1.28 mL; with Rattus norvegicus [5], 2.13 mL. Besides, the Activity is 25.97 pg/mL in the experiment with Rattus norvegicus [10], 30.88% in the experiment on Rattus norvegicus [12], 77.06% with Rattus norvegicus [13] and 5.267 ng/mL in the experiment with Rattus norvegicus [11]. The inhibition in vivo at 25 mg/kg in the experiment with Rattus norvegicus [1] is 33.1%.

As to `CCOC(=O)c1nc2n(n1)C(c1ccc(O)c(C(=O)O)c1)Nc1ccccc1-2` (stereo not drawn), the Activity in the experiment on Rattus norvegicus [6] is 5.6 nM/ml; with Rattus norvegicus [7] it was 2.633 pg/mL; with Rattus norvegicus [8], 2.133 10^3/ml; in the experiment with Rattus norvegicus [9] it was 3.7 ng/mL; in the experiment with Rattus norvegicus [4] it was 1.34 mL; in the experiment on Rattus norvegicus [5] it was 2.03 mL. Besides, the Activity came out at 35.23 pg/mL in the experiment on Rattus norvegicus [10] and 3.183 ng/mL in the experiment with Rattus norvegicus [11]. In addition, the inhibition in vivo at 25 mg/kg with Rattus norvegicus [1] was 45.8%.

For the compound `O=C([O-])Cc1ccccc1Nc1c(Cl)cccc1Cl.[Na+]` [DICLOFENAC SODIUM], the Activity in the experiment on Rattus norvegicus [6] is 17.6 nM/ml; in the experiment on Rattus norvegicus [7] it was 1.27 pg/mL; in the experiment on Rattus norvegicus [8], 2.52 10^3/ml; in the experiment with Rattus norvegicus [9], 9.785 ng/mL; with Rattus norvegicus [10], 8.43 pg/mL; with Rattus norvegicus [12], 21.42%. Further, the Activity was 18.07% with Rattus norvegicus [13], 4.245 ng/mL in the experiment with Rattus norvegicus [11], 1.55 mL in the experiment with Rattus norvegicus [2] and 1.84 mL in the experiment on Rattus norvegicus [3]. For the same compound, the inhibition in vivo at 25 mg/kg in the experiment on Rattus norvegicus [1] stood at 69.8%.
